Assay results as given in patent US20220016215A1, “GIP RECEPTOR AGONIST PEPTIDE COMPOUNDS AND USES THEREOF” (TAKEDA PHAARMACEUTICAL COMPANY LIMITED, priority 2018, published 2022).
Marks after values point to notes of the source that are not given here.

Tests used:
[1] = system: Y2R agonist-induced emesis in dogs; type: in vivo, dog; details: 30 nmol/kg s.c.
Description: Example 8 PYY-1119-Induced Vomiting in Dogs
Emetic episodes were counted for 2 hours after administration (by blinded analysis).
Emetic episodes were counted for 2 hours after Y2R agonist administration (by blinded analysis).

human GIPR = target: T1, human GIPR (Homo sapiens, UniProt P48546); assay: Agonist activity on human GIPR, CRE-luciferase reporter assay (increase in intracellular cAMP as indicator); type: cell-based; details: GLP1R EC50 / GIPR EC50
T1 construct: expressed in transfected cells
T1 sequence (P48546 22-466): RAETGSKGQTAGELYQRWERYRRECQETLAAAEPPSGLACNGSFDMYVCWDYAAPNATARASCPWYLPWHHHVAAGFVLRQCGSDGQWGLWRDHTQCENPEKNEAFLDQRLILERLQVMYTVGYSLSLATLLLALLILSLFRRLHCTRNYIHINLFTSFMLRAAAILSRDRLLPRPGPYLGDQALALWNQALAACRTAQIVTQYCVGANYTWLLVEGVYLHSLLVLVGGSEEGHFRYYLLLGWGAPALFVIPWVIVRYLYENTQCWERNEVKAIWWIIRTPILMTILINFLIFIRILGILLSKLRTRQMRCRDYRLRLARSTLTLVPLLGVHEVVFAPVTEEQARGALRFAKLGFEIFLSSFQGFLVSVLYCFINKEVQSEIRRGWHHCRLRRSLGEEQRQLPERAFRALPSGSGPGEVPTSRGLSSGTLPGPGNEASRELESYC
Source text: The human GIPR gene having an identical sequence to Genebank Accession No. U39231 is cloned into a pMSRα-neo vector to prepare hGIPR/pMSRα-neo.
(2) Construction of Reporter Plasmid Expressing Cell
Luciferase reporter gene with a cAMP-responsive sequence located upstream is transferred to a CHO-K1 cell to construct a CRE-LUC/CHO-K1 cell.
(4) Transfer of Human GIPR Gene to CRE-LUC/CHO-K1 Cell and Obtaining of Expressing Cell
The plasmid hGIPR/pMSRα-neo obtained in (1) is transferred to the CRE-LUC/CHO-K1 cell obtained in (2) to obtain a transformant. Subsequently, the cell line inducing the luciferase expression, hGIPR/CRE-LUC/CHO-K1 cell, is selected from the obtained transformant by adding GIP.
25 μL each of the hGIPR/CRE-LUC/CHO-K1 cell is inoculated in a 384-well white plate (Corning) in such a way as to provide 5×10^3 cells/well and may be cultured in a HamF12 medium containing 10% fetal bovine serum, 100 U/mL penicillin, and 100 μg/mL streptomycin in a CO2 incubator at 37° C. overnight. 5 μL of a medium containing a test compound is added to the cells and incubated for 4 hours at the indicated concentration in a CO2 incubator at 37° C. Steady-Glo (Promega) is added in amounts of 30 μL and shaken under light shielding. Twenty minutes later, luciferase activity is measured using a plate reader Envision (PerkinElmer). The GIPR agonist activity is calculated with increase in intracellular cAMP concentration as the indicator when the luciferase activity in the presence of 10 nM of GIP was 100% and the luciferase activity in the case of adding DMSO instead of the test compound was 0%.

[2] = system: morphine (0.6 mg/kg, s.c.)-induced emesis in ferrets; assay: Morphine-induced acute emetic model in male ferrets; type: in vivo, ferret; details: for Comment: Anti-Emetic Activity (inhibition) on morphine-induced emesis: summary of the morphine experiments
Description: Example 6—In-Vivo Effect of GIP Receptor Agonist Peptides on Emesis in Morphine Induced Emesis Model in Live Male Ferrets
Effect of subcutaneously administered GIP receptor agonist peptide in morphine-induced acute emetic model.
To evaluate the antiemetic effect, the GIP receptor agonist peptides other than natural human GIP were subcutaneously administered into male ferrets 30 minutes before morphine administration. […]. Up to 60 minutes after morphine administration, the condition of the ferrets was monitored to record the frequencies and time points of abdominal contraction motions, vomiting behaviors, licking with the tongue, and fidgety behavior occurring
Effects of Subcutaneously Administered GIP Receptor Agonist Peptides in Morphine-Induced Acute Emetic Model
30 nmol/kg of Compounds 3 and 5 were dissolved with a vehicle (0.09 w/v % tween 80/10% DMSO/saline), respectively, to prepare test solutions. […] of the test solutions and the vehicle were subcutaneously administered to ferrets (4 in each group), respectively. At the time of each of 4 hours, after administration, 0.6 mg/kg of morphine was subcutaneously administered. […] See results in Tables 6, 7 and 8.
(§1) 10 nmol/kg of each compound dissolved with a vehicle (0.09 w/v % tween 80/10% DMSO/saline) respectively, to prepare test solutions. […] of the test solutions and the vehicle were subcutaneously administered to ferrets (4 in each group), respectively. At the time of each of 4 hours, or 120 hours after administration, 0.6 mg/kg of morphine was subcutaneously administered. Up to 360 minutes after morphine administration, the condition of the ferrets was monitored to record the frequencies and time points of abdominal contraction motions, vomiting behaviors, licking with the tongue, and fidgety behavior occurring.
as §1, with “30 nmol/kg” for “10 nmol/kg”, “80/10% DMSO/saline),respectively,” for “80/10% DMSO/saline) respectively,”

[3] = female beagle dogs, Y2R agonist 10 μg/kg s.c. at 8 hours postdose
[4] = female beagle dogs, Y2R agonist 10 μg/kg s.c. at 8 hours postdose, counted for 2 hours
[5] = ferret, morphine 0.6 mg/kg s.c. 4 h after drug, 1047 μg/kg s.c.
[6] = ferret, morphine 0.6 mg/kg s.c. 4 h after drug, 1047 μg/kg s.c., non-responders counted as 30 min
[7] = male ferrets, 30 nmol/kg s.c., morphine 0.6 mg/kg s.c. 4 hours after administration

Q: “YAibEGTFISDYSIALDK(Lys-(ethylene glycol)2-C15 diacid)HQQDFVNWLLAQRG-OH [Compound 26]” was tested. Which “Anti-emetic effects in animal models of emesis (dogs) (in words)” value ([1]; dogs, Tables 16 and 17) did it give?
A: significant anti-emetic effects

Q: And the Duration of emesis [1, 3]?
A: 0.0 ± 0.0 min

Q: And the “Latency period of emesis” value [1, 3]?
A: 92.3 ± 55.5 min

Q: What about the “No. of animals that did not vomit” value [1, 4] of the same compound?
A: 3

Q: What about the “No. of emetic episodes” value [1, 4] of the same compound?
A: 0.3 ± 0.5

Q: And the “No. of emetic episodes, % Inhibition” value ([1]; female beagle dogs, Y2R agonist at 8 hours postdose, decreased ratio of mean emetic episodes vs vehicle group)?
A: [96.6%]

Q: What about the “Selectivity Ratio (B/A)” value (human GIPR) of the same compound?
A: >100,000

Q: Which results are given for `CCCCCCCCCCCCCCCC(=O)NCCCC[C@H](NC(=O)[C@H](Cc1c[nH]c2ccccc12)NC(=O)[C@H](CC(=O)O)NC(=O)[C@H](CC(N)=O)NC(=O)[C@H](CCCCN)NC(=O)[C@H](CCCCN)NC(=O)CNC(=O)[C@H](CCCCN)NC(=O)[C@H](CCC(N)=O)NC(=O)[C@H](C)NC(=O)[C@H](CC(C)C)NC(=O)[C@H](CC(C)C)NC(=O)[C@H](Cc1c[nH]c2ccccc12)NC(=O)[C@H](CC(N)=O)NC(=O)[C@@H](NC(=O)[C@H](Cc1ccccc1)NC(=O)[C@H](CC(=O)O)NC(=O)[C@H](CCC(N)=O)NC(=O)[C@H](CCC(N)=O)NC(=O)[C@H](Cc1c[nH]cn1)NC(=O)[C@@H](NC(=O)[C@H](CCCCN)NC(=O)[C@H](CC(=O)O)NC(=O)[C@H](CCSC)NC(=O)[C@H](C)NC(=O)[C@@H](NC(=O)[C@H](CO)NC(=O)[C@H](Cc1ccc(O)cc1)NC(=O)[C@H](CC(=O)O)NC(=O)[C@H](CO)NC(=O)[C@@H](NC(=O)[C@H](Cc1ccccc1)NC(=O)[C@@H](NC(=O)CNC(=O)[C@H](CCC(=O)O)NC(=O)[C@@H](C)NC(=O)[C@@H](N)Cc1ccc(O)cc1)[C@@H](C)O)[C@@H](C)CC)[C@@H](C)CC)[C@@H](C)CC)C(C)C)C(=O)N[C@@H](Cc1c[nH]cn1)C(=O)N[C@@H](CC(N)=O)C(=O)N[C@H](C(=O)N[C@H](C(=O)N[C@@H](CCC(N)=O)C(N)=O)[C@@H](C)CC)[C@@H](C)CC` [Compound 2]?
A: Emesis: Duration [2, 5]: 0.3 ± 0.6 min; Emesis: Frequency [2, 5]: 2.7 ± 4.6; Emesis: No. of animals (responder/used) [2, 5]: 1/3; Fidget: Duration [2, 5]: 0.3 ± 0.6 min; Fidget: Frequency [2, 5]: 0.3 ± 0.6; Fidget: No. of animals (responder/used) [2, 5]: 1/3; Licking: Duration [2, 5]: 0.0 ± 0.0 min; Licking: Frequency [2, 5]: 0.0 ± 0.0; Licking: No. of animals (responder/used) [2, 5]: 0/3 #; Retching: Duration [2, 5]: 0.3 ± 0.6 min; Retching: Frequency [2, 5]: 2.7 ± 4.6; Retching: No. of animals (responder/used) [2, 5]: 1/3; Vomiting: Duration [2, 5]: 0.0 ± 0.0 min; Vomiting: Frequency [2, 5]: 0.0 ± 0.0; Vomiting: No. of animals (responder/used) [2, 5]: 0/3; Emesis: Latency [2, 6]: 22.7 ± 12.7 min; Fidget: Latency [2, 6]: 22.7 ± 12.7 min; Licking: Latency [2, 6]: 30.0 ± 0.0 min; Retching: Latency [2, 6]: 22.7 ± 12.7 min; Vomiting: Latency [2, 6]: 30.0 ± 0.0 min; Attenuation of morphine-induced emesis (in words) ([2]; male ferrets, 30 nmol/kg s.c. 30 minutes before morphine 0.6 mg/kg s.c.): completely attenuated; Comment: Anti-Emetic Activity (inhibition) on morphine-induced emesis ([2]; male ferrets): partial inhibition; Selectivity Ratio (B/A) (human GIPR): 417

Q: Which results are given for `CCCCCCCCCCCCCCCC(=O)NCCCC[C@H](NC(=O)[C@H](CC(=O)O)NC(=O)[C@H](CCSC)NC(=O)[C@H](C)NC(=O)[C@@H](NC(=O)[C@H](CO)NC(=O)[C@H](Cc1ccc(O)cc1)NC(=O)[C@H](CC(=O)O)NC(=O)[C@H](CO)NC(=O)[C@@H](NC(=O)[C@H](Cc1ccccc1)NC(=O)[C@@H](NC(=O)CNC(=O)[C@H](CCC(=O)O)NC(=O)[C@H](C)NC(=O)[C@@H](N)Cc1ccc(O)cc1)[C@@H](C)O)[C@@H](C)CC)[C@@H](C)CC)C(=O)N[C@H](C(=O)N[C@@H](Cc1c[nH]cn1)C(=O)N[C@@H](CCC(N)=O)C(=O)N[C@@H](CCC(N)=O)C(=O)N[C@@H](CC(=O)O)C(=O)N[C@@H](Cc1ccccc1)C(=O)N[C@H](C(=O)N[C@@H](CC(N)=O)C(=O)N[C@@H](Cc1c[nH]c2ccccc12)C(=O)N[C@@H](CC(C)C)C(=O)N[C@@H](CC(C)C)C(=O)N[C@@H](C)C(=O)N[C@@H](CCC(N)=O)C(=O)N[C@@H](CCCCN)C(=O)NCC(=O)N[C@@H](CCCCN)C(=O)N[C@@H](CCCCN)C(=O)N[C@@H](CC(N)=O)C(=O)N[C@@H](CC(=O)O)C(=O)N[C@@H](Cc1c[nH]c2ccccc12)C(=O)N[C@@H](CCCCN)C(=O)N[C@@H](Cc1c[nH]cn1)C(=O)N[C@@H](CC(N)=O)C(=O)N[C@H](C(=O)N[C@H](C(=O)N[C@@H](CCC(N)=O)C(N)=O)[C@@H](C)CC)[C@@H](C)CC)C(C)C)[C@@H](C)CC` [Compound 3]?
A: Ferrets in which the vomiting symptom was observed (in words) ([2]; ferrets, morphine administered 4 hours after administration): all of the 4 ferrets; Duration of emesis [2, 7]: 5.5 ± 7.1 min; Emetic episodes [2, 7]: 21.8 ± 19.2; Latency period [2, 7]: 7.0 ± 2.9 min; No. of animals that did not vomit [2, 7]: 0; Emetic episodes, % Inhibition of mean value ([2]; male ferrets, 30 nmol/kg s.c., morphine 0.6 mg/kg s.c. 4 hours after administration, vs vehicle): [−143%]; Comment: Anti-Emetic Activity (inhibition) on morphine-induced emesis ([2]; male ferrets): partial inhibition; Selectivity Ratio (B/A) (human GIPR): 447
